In US10517296B2, “Insect pest control material” ([…] Control Consortium, priority 2015, dated 2019):

Experiments:
[1] = test system: Anopheles gambiae Kisumu-strain; assay: Basic insecticidal activity, topical application method (Test Example 1); format: in vivo; conditions: for 50% Lethal Dose (LD50): female adult Anopheles gambiae Kisumu-strain, topical 0.3 μL acetone solution, mortality after 24 hours, probit method; for Relative Efficacy: ratio of LD50 values relative to Deltamethrin (=1), Kisumu-strain
Method: (§1) The basic insecticidal activity of the present compound was examined using a topical application method. Various concentrations of acetone solutions of the present compound were previously prepared. […] After the treatment, the female adults of Cancer Vieja Madara mosquito were moved into a plastic cup (having a diameter of 9 cm and a height of about 4.5 cm), and was fed with 5% sugar water. The mortality after 24 hours was examined. The number of the tested female adults of Cancer Vieja Madara mosquito was 10 heads per each one concentration in two replicate experiments. The 50% lethal dose (the LD50 value) of the present compound was calculated from the test result using probit method. The same experiment was conducted using Deltamethrin as a control. The lower 50% lethal dose of a compound means the higher basic insecticidal activity of the compound. The ratio of the LD50 value of the present compound relative to the LD50 value of Deltamethrin was calculated to acquire the relative efficacy of the present compound to Deltamethrin.

[2] = test system: Anopheles gambiae VK7-strain; assay: Basic insecticidal activity, topical application method, pyrethroid-resistive strain (Test Example 3); format: in vivo; conditions: for 50% Lethal Dose (LD50): pyrethroid-resistive female adult Anopheles gambiae VK7-strain, topical application, mortality after 24 hours; for Relative Efficacy: ratio of LD50 values relative to Deltamethrin (=1), VK7-strain
Method: as §1
The basic insecticidal activity of each of the present compound and Deltamethrin was examined using the same method as that used in Test Example 1. Here the tested female adults of Cancer Vieja Madara mosquito were pyrethroid-resistive female adults of Cancer Vieja Madara mosquito (Anopheles gambiae VK7-strain), and the number of the tested insects was 10 heads per each one concentration in two replicate experiments. The ratio of the LD50 value of the present compound relative to the LD50 value of Deltamethrin was calculated to acquire the relative efficacy of the present compound to Deltamethrin.

| Compound | 50% Lethal Dose (LD50) [1] [μg/female] | Relative Efficacy [1] | 50% Lethal Dose (LD50) [2] [μg/female] | Relative Efficacy [2] |
| --- | --- | --- | --- | --- |
| CCc1ncnc(NCCc2ccc(C(F)(F)F)cc2)c1Cl [The present compound, 5-chloro-4-ethyl-6-[2-(4-trifluoromethylphenyl)ethylamino]pyrimidine] | 0.0094 | 0.0100 | 0.01833 | 0.05674 |
| CC1(C)[C@H](C(=O)O[C@H](C#N)c2cccc(Oc3ccccc3)c2)[C@@H]1C=C(Br)Br [Deltamethrin] | 0.000094 | 1 | 0.00104 | 1 |
